Test [1] deals with T1, Adrenergic receptor alpha-2 (Rattus norvegicus) (UniProt P22086+P19328+P22909).
Description: Antagonistic activity against central alpha-2 adrenergic receptor, in anesthetized rats (reversal of clonidine-induced mydriasis)
Test [2] concerns the target T2, Alpha-1A adrenergic receptor (Bos taurus, UniProt P18130).
T2 sequence (P18130 whole entry): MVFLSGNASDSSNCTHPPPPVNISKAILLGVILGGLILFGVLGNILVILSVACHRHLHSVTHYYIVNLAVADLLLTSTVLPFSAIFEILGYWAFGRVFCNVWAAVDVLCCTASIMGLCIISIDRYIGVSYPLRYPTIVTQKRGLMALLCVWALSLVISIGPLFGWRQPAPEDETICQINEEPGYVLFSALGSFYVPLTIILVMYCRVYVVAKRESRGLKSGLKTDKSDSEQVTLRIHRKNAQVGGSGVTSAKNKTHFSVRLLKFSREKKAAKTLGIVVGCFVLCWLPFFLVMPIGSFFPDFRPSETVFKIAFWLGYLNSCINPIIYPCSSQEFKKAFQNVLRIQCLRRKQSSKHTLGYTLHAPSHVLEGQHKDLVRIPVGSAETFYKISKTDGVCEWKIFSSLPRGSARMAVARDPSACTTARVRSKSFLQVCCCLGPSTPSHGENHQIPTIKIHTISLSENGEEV
Description: Binding activity against alpha-1 adrenergic receptor from calf cerebral cortex, using [3H]-prazosin as the radioligand. In kind it is tissue-based.

The target of test [3] is T3, Adrenergic receptor alpha-2 (Rattus norvegicus, UniProt P22086+P19328+P22909).
T3 sequence (P22086 whole entry): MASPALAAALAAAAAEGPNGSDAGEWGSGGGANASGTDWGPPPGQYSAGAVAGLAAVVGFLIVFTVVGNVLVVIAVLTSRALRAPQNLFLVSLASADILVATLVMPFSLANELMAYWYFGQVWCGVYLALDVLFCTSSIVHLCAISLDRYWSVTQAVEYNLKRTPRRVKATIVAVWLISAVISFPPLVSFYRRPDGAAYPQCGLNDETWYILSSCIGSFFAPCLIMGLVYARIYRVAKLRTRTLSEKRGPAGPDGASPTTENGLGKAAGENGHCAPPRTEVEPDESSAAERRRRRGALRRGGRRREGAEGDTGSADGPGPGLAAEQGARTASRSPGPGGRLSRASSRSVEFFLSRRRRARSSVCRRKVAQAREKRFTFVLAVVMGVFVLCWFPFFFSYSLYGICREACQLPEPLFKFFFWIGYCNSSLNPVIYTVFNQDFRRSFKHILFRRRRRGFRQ
T3 sequence (P19328 whole entry): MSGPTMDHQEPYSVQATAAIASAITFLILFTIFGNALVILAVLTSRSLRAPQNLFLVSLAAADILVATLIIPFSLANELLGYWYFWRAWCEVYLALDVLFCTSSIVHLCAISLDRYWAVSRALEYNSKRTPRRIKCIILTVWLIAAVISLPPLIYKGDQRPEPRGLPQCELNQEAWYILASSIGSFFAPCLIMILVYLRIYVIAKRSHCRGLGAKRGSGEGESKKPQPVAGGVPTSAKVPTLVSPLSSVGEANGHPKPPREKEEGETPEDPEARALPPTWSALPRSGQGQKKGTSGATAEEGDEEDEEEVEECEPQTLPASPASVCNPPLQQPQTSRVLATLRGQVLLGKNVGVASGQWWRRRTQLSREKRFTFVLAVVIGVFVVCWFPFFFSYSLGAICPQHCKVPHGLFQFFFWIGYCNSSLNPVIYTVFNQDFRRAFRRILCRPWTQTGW
T3 sequence (P22909 whole entry): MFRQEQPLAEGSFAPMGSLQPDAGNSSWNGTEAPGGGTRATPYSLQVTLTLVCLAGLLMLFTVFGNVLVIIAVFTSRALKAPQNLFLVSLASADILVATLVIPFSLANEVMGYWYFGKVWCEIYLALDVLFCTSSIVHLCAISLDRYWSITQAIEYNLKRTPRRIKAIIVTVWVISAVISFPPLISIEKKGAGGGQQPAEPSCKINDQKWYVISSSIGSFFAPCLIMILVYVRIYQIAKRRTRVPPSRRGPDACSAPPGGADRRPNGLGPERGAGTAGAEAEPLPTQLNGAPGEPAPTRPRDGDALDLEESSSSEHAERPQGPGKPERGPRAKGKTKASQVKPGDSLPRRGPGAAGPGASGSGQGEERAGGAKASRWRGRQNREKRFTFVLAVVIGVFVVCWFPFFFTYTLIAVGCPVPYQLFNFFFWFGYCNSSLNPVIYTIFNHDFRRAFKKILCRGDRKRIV
Description: Presynaptic antagonistic activity against alpha-2 adrenergic receptor from rat, isolated, field-stimulated vas deferens, using clonidine as the agonist. The class given is functional.

Test [4] addresses T4, Alpha-2A adrenergic receptor (Bos taurus, UniProt Q28838).
T4 sequence (Q28838 whole entry): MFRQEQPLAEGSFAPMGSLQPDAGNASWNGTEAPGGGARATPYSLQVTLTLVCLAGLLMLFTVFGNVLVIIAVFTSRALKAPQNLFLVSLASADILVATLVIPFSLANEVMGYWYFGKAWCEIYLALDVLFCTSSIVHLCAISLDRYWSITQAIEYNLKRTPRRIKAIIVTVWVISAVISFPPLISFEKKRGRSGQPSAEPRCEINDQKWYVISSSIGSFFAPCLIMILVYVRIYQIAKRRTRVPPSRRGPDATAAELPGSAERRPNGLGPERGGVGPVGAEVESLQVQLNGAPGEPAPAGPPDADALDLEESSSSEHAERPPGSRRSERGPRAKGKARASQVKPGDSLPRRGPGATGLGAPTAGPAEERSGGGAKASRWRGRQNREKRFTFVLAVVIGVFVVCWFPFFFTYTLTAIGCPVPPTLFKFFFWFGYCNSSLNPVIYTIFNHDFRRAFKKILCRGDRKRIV
The test can be described thus: Binding activity against alpha-2 adrenergic receptor from calf cerebral cortex, using [3H]clonidine as the radioligand. In kind it is tissue-based.

In test [5] the target is T1, Adrenergic receptor alpha-2 (Rattus norvegicus). Description: Antagonistic activity against central alpha-2 adrenergic receptor, in anesthetized rats, by reversing the established clonidine-induced mydriasis; 0.3-1. In kind it is functional.
Test [6] concerns the target T5, Adrenergic receptor alpha-1 (Rattus norvegicus, UniProt P15823+P23944+P43140).
T5 sequence (P15823 whole entry): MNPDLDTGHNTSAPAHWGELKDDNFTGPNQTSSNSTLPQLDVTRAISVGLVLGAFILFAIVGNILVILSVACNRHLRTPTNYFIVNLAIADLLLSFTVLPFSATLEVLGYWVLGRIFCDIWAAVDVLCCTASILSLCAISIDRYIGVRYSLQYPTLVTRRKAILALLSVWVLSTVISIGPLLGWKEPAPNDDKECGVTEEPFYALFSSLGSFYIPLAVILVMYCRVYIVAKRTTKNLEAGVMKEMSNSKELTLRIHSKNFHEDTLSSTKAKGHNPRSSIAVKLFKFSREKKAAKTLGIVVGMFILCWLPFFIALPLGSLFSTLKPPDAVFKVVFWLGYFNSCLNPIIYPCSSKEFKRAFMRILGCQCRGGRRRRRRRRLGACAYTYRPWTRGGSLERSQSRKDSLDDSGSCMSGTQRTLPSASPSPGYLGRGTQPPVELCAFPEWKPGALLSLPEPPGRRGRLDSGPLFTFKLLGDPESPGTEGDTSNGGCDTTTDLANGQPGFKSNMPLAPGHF
T5 sequence (P23944 whole entry): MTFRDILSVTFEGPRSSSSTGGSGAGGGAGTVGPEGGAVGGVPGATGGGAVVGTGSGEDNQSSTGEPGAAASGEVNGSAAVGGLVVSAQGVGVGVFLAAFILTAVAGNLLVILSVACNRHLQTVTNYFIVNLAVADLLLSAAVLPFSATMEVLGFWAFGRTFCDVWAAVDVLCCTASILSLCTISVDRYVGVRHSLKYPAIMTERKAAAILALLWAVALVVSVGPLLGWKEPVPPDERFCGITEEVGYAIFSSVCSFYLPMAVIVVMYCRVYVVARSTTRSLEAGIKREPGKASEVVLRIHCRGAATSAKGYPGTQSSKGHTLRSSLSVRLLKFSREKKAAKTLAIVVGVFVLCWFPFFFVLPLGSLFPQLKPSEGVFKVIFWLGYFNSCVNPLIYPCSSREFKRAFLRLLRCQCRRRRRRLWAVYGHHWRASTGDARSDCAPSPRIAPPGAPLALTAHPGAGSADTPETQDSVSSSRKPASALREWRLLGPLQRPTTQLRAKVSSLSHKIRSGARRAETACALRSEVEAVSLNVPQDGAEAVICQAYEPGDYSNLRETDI
T5 sequence (P43140 whole entry): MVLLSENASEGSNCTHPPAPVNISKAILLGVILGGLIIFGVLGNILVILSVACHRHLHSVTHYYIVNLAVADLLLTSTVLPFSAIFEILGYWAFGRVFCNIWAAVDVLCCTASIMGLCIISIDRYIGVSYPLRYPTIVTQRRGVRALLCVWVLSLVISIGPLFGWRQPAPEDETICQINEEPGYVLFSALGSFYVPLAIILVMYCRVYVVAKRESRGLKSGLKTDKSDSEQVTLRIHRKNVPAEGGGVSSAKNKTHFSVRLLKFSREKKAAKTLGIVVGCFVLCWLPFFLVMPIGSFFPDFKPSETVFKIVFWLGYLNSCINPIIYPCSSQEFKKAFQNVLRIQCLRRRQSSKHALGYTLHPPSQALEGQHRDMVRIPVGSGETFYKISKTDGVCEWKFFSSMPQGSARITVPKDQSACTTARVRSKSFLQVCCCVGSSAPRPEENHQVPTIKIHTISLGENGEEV
The test can be described thus: Presynaptic antagonistic activity against alpha-1 adrenergic receptor from rat, isolated, field-stimulated vas deferens, using methoxamine as the agonist. In kind it is functional.

Bounds are passed on as bounds.

As for `CN1CCN2c3ccccc3Cc3ccccc3C2C1` (stereo unspecified), the AD50 in test [1] is > 10 mg/kg.
Take `Clc1ccc(N2CCNCC2)nc1`: the Ki (in general, a measure of affinity in units of concentration, obtained from inhibition or displacement) in test [2] was found to be 0.9 µM; in test [4] it was 1.34 µM. Moreover, in test [1], the AD50 is > 3 mg/kg. Further, in test [3], the pA2 (as a rule, the negative logarithm of the molar antagonist concentration that doubles the agonist concentration needed for the same response) is given as < 5.8.
Turning to `NC(=O)c1cccnc1N1CCNCC1`, the Ki in test [2] is 62 µM; in test [4] it was 5.2 µM. For the same molecule, in test [1], the AD50 is > 3 mg/kg. Further, the pA2 in test [3] is listed as < 5.8.
On to `c1ccc2c(c1)OCC(C1=NCCN1)O2` (stereo unspecified) [IDAZOXAN], for which the Ki stood at 0.5 µM in test [2] and 0.0015 µM in test [4]. This molecule also showed an AD50 in test [1] of 0.05 mg/kg.
`Clc1cccc(N2CCNCC2)n1` had a Ki in test [2] of 0.375 µM. In addition, the pA2 is 6.8 in test [3] and 6 in test [6]. Also, the AD50 in test [5] is 0.3 mg/kg.
Regarding `Ic1cccnc1N1CCNCC1`, the Ki in test [2] was found to be 1.6 µM. In test [1], the AD50 came to 1.95 mg/kg. The pA2 came to 6.2 in test [3] and 6 in test [6].
In test [2], `Clc1cccnc1N1CCNCC1` came in with a Ki of 1.8 µM. This molecule also showed an AD50 in test [1] of 0.44 mg/kg. The results for the pA2 in test [3] and in test [6] were 6.9 and 5.7, respectively.
`O=[N+]([O-])c1cccnc1N1CCNCC1`: the inhibition constant (Ki) in test [2] was 3.8 µM; in test [4], 0.026 µM. The AD50 in test [1] came to 1.53 mg/kg. Also, the pA2 in test [3] turned out to be 6.3.
`COC(=O)[C@H]1[C@H]2C[C@H]3c4[nH]c5ccccc5c4CCN3C[C@H]2CC[C@@H]1O`: the AD50 in test [1] was 1.1 mg/kg.
As for `Cc1ccnc(N2CCNCC2)c1Cl`, the Ki in test [2] turned out to be 4.3 µM; in test [4], 0.074 µM. In test [1], this molecule had an AD50 of 14 mg/kg. For the same molecule, in test [3], the pA2 is recorded as 5.9.
As to `Nc1cccnc1N1CCNCC1`, the Ki in test [2] worked out at 31 µM; in test [4], 0.44 µM. Moreover, the AD50 in test [1] was > 3 mg/kg. Also, the pA2 in test [3] was < 5.8.
On to `COC(=O)[C@@H]1[C@H]2C[C@H]3c4[nH]c5ccccc5c4CCN3C[C@@H]2CC[C@@H]1O`, for which the AD50 in test [1] worked out at 1.04 mg/kg.
`FC(F)(F)c1cccnc1N1CCNCC1`: the figures for the Ki in test [2] and in test [4] were 2.85 µM and 0.097 µM, respectively. In test [1], the AD50 was found to be 3.63 mg/kg. Besides, the pA2 in test [3] is < 5.8.
On to `Clc1cnc(N2CCNCC2)c(Cl)c1`, for which the Ki was 0.8 µM in test [2] and 0.5 µM in test [4]. Also, the AD50 in test [1] is > 3 mg/kg. In addition, the pA2 in test [3] was < 5.8.
In test [2], `CN1CCN(c2ncccc2Br)CC1` registered an inhibition constant Ki of 0.16 µM. This molecule also returned an AD50 in test [1] of 0.74 mg/kg. For the same molecule, the pA2 came out at 7.6 in test [3] and 6.5 in test [6].
The corresponding values for `Brc1cccnc1N1CCNCC1` are 1.48 µM, 0.68 mg/kg, 6.6 and 5.8.
On to `N#Cc1cccnc1N1CCNCC1`, for which the inhibition constant Ki was 2 µM in test [2] and 0.014 µM in test [4]. This molecule also gave an AD50 in test [1] of 1.07 mg/kg. The same molecule showed a pA2 in test [3] of 6.1.
Regarding `c1ccc(N2CCNCC2)nc1`, the Ki in test [2] came out at 2.4 µM. In test [1], this molecule displayed an AD50 of 1.28 mg/kg. Besides, the figures for the pA2 in test [3] and in test [6] were 6.4 and 5.7, respectively.
For `Clc1cnccc1N1CCNCC1`, the Ki in test [2] stood at 6.8 µM; in test [4] it was 0.39 µM. For the same molecule, in test [1], the AD50 was > 3 mg/kg. For the same molecule, the pA2 in test [3] is on record as < 5.8.

The values above are taken from ChEMBL document CHEMBL1122408, “Pyridinylpiperazines, a new class of selective alpha 2-adrenoceptor antagonists” (J Med Chem, 1983).
